From US12648952B2, “Methods of treatment using ICAM-modulating agents” (AVM Biotechnology, LLC, priority 2020, dated 2026)

Columns and labels:
[1] = test system: splenocytes; test: Ex vivo splenocyte viability by flow cytometry (Study 24); type: cell-based, mouse
Method: Splenocytes were cultured for 16 hours prior to assay execution.

[2] = test system: whole blood; test: Ex vivo whole blood incubation, immune cell numbers (Study 6); type: cell-based, mouse or human
Method: The profound in vivo activity that is observed in naïve mice and in cancer models must therefore be mediated through the mobilized supercharged Natural Killer T cells, T cells and dendritic cells after AVM0703 HED 6 mg/kg and higher.

[3] = test system: whole blood; test: Ex vivo glucocorticoid comparison, whole blood CBC analysis; type: cell-based; conditions: overnight, room temperature
[4] = test system: lymphocytes, monocytes, NKT cells, T cells, dendritic cells; test: In vivo immune cell mobilisation and ablation after high dose glucocorticoid; set-up: species or system mice; conditions: HED 15 mg/kg and higher
Excerpt: High doses of glucocorticoid exert powerful biological effects that will contribute to the treatment of lymphocyte-mediated diseases and cancers, as well as microbial diseases. […] This cell type is discussed in greater detail below.
CD4CD8 double positivity on CD3 T lymphocytes indicates a cytotoxic T cell. […] In vivo only lymphocytes, monocytes, some neutrophils and cancer cells have been ablated.
AVM_NKT cells are NKp46+ and Ly6G positive, indicating the potential to directly kill targets as well as to engulf them. The typical AVM_NKT summarized above are not CD1d restricted. […] In vivo, glucocorticoids ablate lymphocytes other than NK and NKT cells, and monocytes, within 6 hours after oral dosing of naïve mice. In tumor models the novel NKT and T cell are not observed in the blood. However, within 48 hours of dosing NKp46+ cells and Ly6G+ cells, which are not macrophages as they are negative for F4/80, can be found in formations within the tumors, surrounding regions of remaining viable tumor. This indicates the functional potency of these cells. In the tumor setting, the AVM novel immune cells are not observed in the blood. They appear to preferentially home to the abnormal cells, in this case cancer cells, and circulating normal monocytes and neutrophils are not depleted as they are in the naïve setting.

[5] = cited from earlier work
[6] = ex vivo or in vitro concentrations equal to peak blood concentrations of HED 7-15 mg/kg or greater

Q: What does the source list for `C[C@@H]1C[C@H]2[C@@H]3CCC4=CC(=O)C=C[C@]4(C)[C@@]3(F)[C@@H](O)C[C@]2(C)[C@@]1(O)C(=O)CO` [dexamethasone base]?
A: response of isolated splenocytes ([1]; 100 uM up to 500 uM): no response; concentrations that do not trigger splenocyte cell death ([1]; after 4 hours): above 100 μM; concentrations with direct killing activity on splenocytes ([1]; after 4 hours): lower than 100; response of ex vivo whole blood ([2]; 100 uM up to 500 uM): no response; numbers of lymphocytes, monocytes, eosinophils, basophils in whole blood ([2]; 500 μM dexamethasone base or 50 RU486, 16 hr, room temperature): no change in numbers; lymphocyte-killing activity in whole blood ([2]; 500 μM dexamethasone base or 50 RU486 alone): does not induce the lymphocyte-killing activity seen in in vivo experiments

Q: Which “differences between dexamethasone formulations in ex vivo CBC analysis” value [3] does the source give for `C[C@@H]1C[C@H]2[C@@H]3CCC4=CC(=O)C=C[C@]4(C)[C@@]3(F)[C@@H](O)C[C@]2(C)[C@@]1(O)C(=O)COP(=O)(O)O` [dexamethasone phosphate] here?
A: Its value is “no noticeable differences”.

Q: And the “direct apoptotic effect on splenocytes” value [1, 6]?
A: Its value is “no direct apoptotic effect”.

Q: And the “in vivo effects on colon, pancreas or bone” value [4]?
A: The value was “no effects on colon, pancreas or bone”.

Q: And the “induction of CD3-very-high T cells and CD11b-very-high dendritic cells” value [4]?
A: Its value is “CD11b-very-high dendritic cells are also induced”.

Q: And the “direct apoptotic effect on whole blood” value [2, 6]?
A: The value was “no direct apoptotic effect”.

Q: With `C[C@]12C=CC(=O)C=C1CC[C@@H]1[C@@H]2C(=O)C[C@@]2(C)[C@H]1CC[C@]2(O)C(=O)CO` [prednisone] as the compound, how does the biologic half-life [5] read?
A: Its biologic half-life is “about 20 hours”.
